According to ChEMBL document CHEMBL1153960, “Syntheses of novel high affinity ligands for opioid receptors” (Bioorg Med Chem Lett, 2009):

What was measured:
[1] = molecular target: T1, Delta-type opioid receptor (Homo sapiens, UniProt P41143); experiment: biochemical
Mu-type opioid receptor [2] = molecular target: T2, Mu-type opioid receptor (Homo sapiens, UniProt P35372); experiment: biochemical
Mu-type opioid receptor [3] = molecular target: T2, Mu-type opioid receptor; experiment: biochemical; remark: listed apart in the source
[4] = molecular target: T3, Kappa-type opioid receptor (Homo sapiens, UniProt P41145); experiment: Displacement of [3H]U69,593 from human kappa opioid receptor expressed in CHO cells after 60 mins by scintillation counting
T3 sequence (P41145 whole entry): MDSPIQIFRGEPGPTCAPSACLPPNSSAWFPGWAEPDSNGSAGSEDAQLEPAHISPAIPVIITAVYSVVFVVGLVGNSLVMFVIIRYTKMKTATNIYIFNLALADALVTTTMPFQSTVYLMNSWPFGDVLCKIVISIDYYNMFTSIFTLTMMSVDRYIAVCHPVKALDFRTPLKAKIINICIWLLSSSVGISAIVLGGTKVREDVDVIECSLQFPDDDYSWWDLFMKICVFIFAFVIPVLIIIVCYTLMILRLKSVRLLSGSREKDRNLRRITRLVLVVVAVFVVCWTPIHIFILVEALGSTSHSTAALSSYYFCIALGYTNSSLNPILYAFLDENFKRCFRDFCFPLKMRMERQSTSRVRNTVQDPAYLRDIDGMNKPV

Mu-type opioid receptor [5] = molecular target: T2, Mu-type opioid receptor; conditions: CHO, 10 uM
Mu-type opioid receptor [6] = molecular target: T2, Mu-type opioid receptor; experiment: biochemical; remark: listed apart in the source
Description: Agonist activity at human mu opioid receptor expressed in CHO cells assessed as stimulation of [35S]GTPgammaS binding

[7] = molecular target: T1, Delta-type opioid receptor; experiment: biochemical; remark: listed apart in the source
[8] = molecular target: T3, Kappa-type opioid receptor; conditions: CHO, 10 uM
[9] = molecular target: T1, Delta-type opioid receptor; experiment: biochemical; remark: listed apart in the source
Description: Agonist activity at human delta opioid receptor expressed in CHO cells assessed as stimulation of [35S]GTPgammaS binding

[10] = molecular target: T3, Kappa-type opioid receptor; experiment: Antagonist activity against human kappa opioid receptor expressed in CHO cells assessed as inhibition of U50488-stimulated [35S]GTPgammaS binding
[11] = molecular target: T3, Kappa-type opioid receptor; experiment: Agonist activity at human kappa opioid receptor expressed in CHO cells assessed as stimulation of [35S]GTPgammaS binding

T2 sequence (P35372 whole entry): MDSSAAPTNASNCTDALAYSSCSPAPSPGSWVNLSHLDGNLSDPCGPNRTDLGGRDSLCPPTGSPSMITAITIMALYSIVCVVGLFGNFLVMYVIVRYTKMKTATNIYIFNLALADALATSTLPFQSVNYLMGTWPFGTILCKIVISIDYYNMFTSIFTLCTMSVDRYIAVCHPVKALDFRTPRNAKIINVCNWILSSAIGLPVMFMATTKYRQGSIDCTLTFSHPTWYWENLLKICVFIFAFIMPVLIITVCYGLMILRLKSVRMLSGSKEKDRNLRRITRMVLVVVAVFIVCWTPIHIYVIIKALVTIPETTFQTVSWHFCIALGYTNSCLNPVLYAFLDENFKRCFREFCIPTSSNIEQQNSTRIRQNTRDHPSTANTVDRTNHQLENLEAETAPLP
T1 sequence (P41143 whole entry): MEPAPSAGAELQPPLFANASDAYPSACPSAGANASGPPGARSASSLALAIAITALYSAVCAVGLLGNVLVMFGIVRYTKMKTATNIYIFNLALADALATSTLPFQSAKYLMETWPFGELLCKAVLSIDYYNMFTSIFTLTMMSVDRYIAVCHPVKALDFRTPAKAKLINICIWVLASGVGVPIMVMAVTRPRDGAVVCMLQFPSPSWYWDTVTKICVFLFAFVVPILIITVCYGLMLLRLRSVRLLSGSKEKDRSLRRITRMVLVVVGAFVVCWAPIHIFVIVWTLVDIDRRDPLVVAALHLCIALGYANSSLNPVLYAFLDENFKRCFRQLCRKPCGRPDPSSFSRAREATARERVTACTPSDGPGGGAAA

Structure (SMILES)	Ki [1] [nM]	IC50 (Mu-type opioid receptor [2]) [nM]	Ki (Mu-type opioid receptor [3]) [nM]	Ki [4] [nM]	IC50 [7] [nM]	also measured
NC(=O)c1ccc2c3c1O[C@H]1CCC[C@@]4(O)[C@@H](C2)N(CC2CC2)CC[C@]314	630	54	2.5	16		
C[N+]1(CC2CC2)CC[C@]23c4c5ccc(C(N)=O)c4O[C@H]2C(=O)CC[C@@]3(O)[C@H]1C5 (stereo partly specified)	> 10000		37			
NC(=O)c1ccc2c3c1O[C@H]1[C@@H](O)CC[C@@]4(O)[C@@H](C2)N(CC2CCC2)CC[C@]314						Imax (Mu-type opioid receptor [5]): 56%
CN1CC[C@]23c4c5ccc(C(N)=O)c4O[C@H]2C(=O)CC[C@H]3[C@H]1C5	260		1.2			EC50 (Mu-type opioid receptor [6]): 110 nM
NC(=O)c1ccc2c(c1O)[C@]13CCN(CC4CCC4)[C@H](C2)[C@]1(O)CC[C@@H](O)C3					130	Imax [8]: 25%; EC50 [9]: 3.7 nM
NC(=O)c1ccc2c(c1O)[C@]13CCN(CC4CC4)[C@H](C2)[C@]1(O)Cc1c([nH]c2ccccc12)C3	0.025		0.51	0.81	0.08	IC50 [10]: 28 nM
NC(=O)c1ccc2c3c1O[C@H]1c4[nH]c5ccccc5c4C[C@@]4(O)[C@@H](C2)N(CC2CC2)CC[C@]314	0.3		46	47	0.77	
NC(=O)c1ccc2c(c1O)[C@@]13CCCC[C@@]1(O)[C@@H](C2)N(CC1CC1)CC3					5.8	EC50 [11]: 2.3 nM; IC50 [10]: 57 nM
NC(=O)c1ccc2c(c1O)[C@]13CCN(CC4CC4)[C@H](C2)[C@]1(O)CCC(=O)C3		0.88			6.9	EC50 [11]: 3.3 nM; IC50 [10]: 38 nM; EC50 [9]: 1.8 nM
NC(=O)c1ccc2c3c1O[C@H]1C(=O)CC[C@@]4(O)[C@@H](C2)N(CC2CC2)CC[C@]314		270				EC50 (Mu-type opioid receptor [6]): 4.9 nM
CN1CC[C@]23CC(=O)CC[C@H]2[C@H]1Cc1ccc(C(N)=O)c(O)c13	8.3		0.3	2.3		EC50 [11]: 3.9 nM; EC50 (Mu-type opioid receptor [6]): 1.6 nM
Oc1ccc2c3c1O[C@H]1CCC[C@@]4(O)[C@@H](C2)N(CC2CC2)CC[C@]314	79	4.4	0.24	0.24		IC50 [10]: 13 nM
NC(=O)c1ccc2c(c1O)[C@]13CCN(CC4CCC4)[C@H](C2)[C@]1(O)CC[C@H](O)C3						Imax [8]: 36%
C[N+]1(CC2CC2)CC[C@]23c4c5ccc(O)c4O[C@H]2C(=O)CC[C@@]3(O)[C@H]1C5 (stereo partly specified) [NALTREXONE METHIODIDE]		170				EC50 [11]: 9 nM; Imax [8]: 60%
